Reference: article PMC10991534, “The redox-sensitive R-loop of the carbon control protein SbtB contributes to the regulation of the cyanobacterial CCM” (Scientific Reports, 2024)

Columns and labels:
Assay in all cases: ITC, one set of sites model
SbtB [1] = target: T1, SbtB (Synechocystis sp. PCC 6803, UniProt P73954, C110S); assay type: binding
T1 construct: gene slr1513; R-loop Cys105-Cys110

SbtB-Δ104 = target: T2, SbtB-Δ104 (Synechocystis sp. PCC 6803, UniProt P73954); assay type: binding
T2 construct: gene slr1513; C-terminal R-loop truncated, StrepII-tagged, recombinant, trimer
T2 sequence (P73954 1-104, stated change not applied): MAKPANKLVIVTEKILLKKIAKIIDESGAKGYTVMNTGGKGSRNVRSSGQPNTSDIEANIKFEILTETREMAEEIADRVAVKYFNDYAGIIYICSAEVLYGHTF

SbtB-Δ109 = target: T3, SbtB-Δ109 (Synechocystis sp. PCC 6803, UniProt P73954); assay type: binding
T3 construct: gene slr1513; last residue Cys110 deleted, StrepII-tagged, recombinant, trimer
T3 sequence (P73954 1-109, stated change not applied): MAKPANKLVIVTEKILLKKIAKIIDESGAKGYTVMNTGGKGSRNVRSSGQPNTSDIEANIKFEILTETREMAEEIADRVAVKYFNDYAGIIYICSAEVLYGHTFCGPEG

SbtB [2] = target: T4, SbtB (Synechocystis sp. PCC 6803, UniProt P73954); details: WT oxidized R-loop; re-calculated here from the group's earlier ITC data (ref 11) with single binding model; cited from earlier work
T4 construct: gene slr1513; R-loop Cys105-Cys110
T4 sequence (P73954 whole entry): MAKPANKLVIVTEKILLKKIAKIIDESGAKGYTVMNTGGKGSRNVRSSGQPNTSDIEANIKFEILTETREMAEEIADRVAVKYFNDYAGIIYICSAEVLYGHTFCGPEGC

SbtB [3] = target: T5, SbtB (Synechocystis sp. PCC 6803, UniProt P73954, C105S/C110S); assay type: binding
T5 construct: gene slr1513; R-loop Cys105-Cys110
T5 sequence (P73954 whole entry C105S/C110S): as the sequence (P73954 whole entry) above, with C105S, C110S counted along it

SbtB [4] = target: T6, SbtB (Synechocystis sp. PCC 6803, UniProt P73954, C105A/C110A); assay type: binding
T6 construct: gene slr1513; R-loop Cys105-Cys110
T6 sequence (P73954 whole entry C105A/C110A): as the sequence (P73954 whole entry) above, with C105A, C110A counted along it

SbtB [5] = target: T7, SbtB (Synechocystis sp. PCC 6803, UniProt P73954, C105S); assay type: binding
T7 construct: gene slr1513; R-loop Cys105-Cys110
T7 sequence (P73954 whole entry C105S): as the sequence (P73954 whole entry) above, with C105S counted along it

T1 sequence (P73954 whole entry C110S): as the sequence (P73954 whole entry) above, with C110S counted along it

Structure (SMILES)	Kd (SbtB [1])	Kd (SbtB-Δ104)	Kd (SbtB-Δ109)	Kd (SbtB [2])	Kd (SbtB [3])	Kd (SbtB [4])	Kd (SbtB [5])
Nc1ncnc2c1ncn2[C@@H]1O[C@H](COP(=O)(O)OP(=O)(O)OP(=O)(O)O)[C@@H](O)[C@H]1O [ATP]	60.1 ± 6.7 µM	35 ± 7.1 µM	32.5 ± 17.9 µM	62.5 ± 16.6 µM	47.6 ± 21.3 µM	29.8 ± 14.1 µM	40.5 ± 75.9 µM
Nc1ncnc2c1ncn2[C@@H]1O[C@H](COP(=O)(O)OP(=O)(O)O)[C@@H](O)[C@H]1O [ADP]	–	79.2 ± 55.1 µM	–	55.8 ± 7.7 µM	–	–	–
Nc1ncnc2c1ncn2[C@@H]1O[C@H](COP(=O)(O)O)[C@@H](O)[C@H]1O [AMP]	–	78.2 ± 6 µM	–	87.4 ± 3.7 µM	–	–	–
